From patent US9763987B2, “Cyclic di-AMP induction of type I interferon” (priority 2010, dated 2017)

Assays:
WT and mutant BMMs = assay: IFN-β induction in various host strains (WT and knockout BMMs), ISRE L929 bioassay; type: cell-based, mouse; conditions: 3 μM with digitonin, 6 hours; WT vs myd88-trif−/−, irf3−/−, mays−/− macrophages; parallel to L. monocytogenes (IRF3 and STING dependent, MyD88/Trif and MAVS independent); FIG. 9
Protocol: BMMs were differentiated as described previously (S3). For mays−/−macrophages, heterozygous mice were used as a control. WT and mutant BMMs were plated in 24-well plates ([…]) the evening prior to use. For infections, 2×10^6 bacteria from 30° C. overnight cultures were washed with PBS and added to each well containing 500 μL of BMM media. For c-di-AMP treatment, synthetic standard was dissolved in digitonin solution to a final concentration of 3 μM. Media was aspirated from cells and replaced with 200 μL of c-di-AMP/digitonin mix. From this point on infections and c-di-AMP samples were treated the same. At 30 minutes wells were aspirated and replaced with fresh BMM media. At 1 hour post infection gentamycin (50 μg/mL) was added. For LPS treatment, 100 ng of sonicated LPS stock solution (50 μg/mL) was added to appropriate wells containing 500 μL of BMM media. Supernatants from all wells were collected and analyzed by ISRE L929 bioassay for IFN-β activity at 6 hours. • 10. Supporting References • S1. D. A. Portnoy, P. S. Jacks, D. J. Hinrichs, Role of hemolysin for the intracellular growth of Listeria monocytogenes. J. Exp. Med. 167, 1459 (1988). • S2. L. Phan-Thanh, T. Gormon, A chemically defined minimal medium for the optimal culture of Listeria. Int. J. Food Microbiol. 35, 91 (1997). • S3. […]

[1] = tested on: bone marrow derived macrophages (BMM); assay: IFN-β bio-assay: samples delivered to BMM cytosol by digitonin, type I IFN read with ISRE-L929 luciferase reporter cells; type: cell-based, mouse; conditions: FIG. 3d
Protocol: Mouse bone marrow from 6-8 week old female mice was differentiated to bone marrow derived macrophages (BMM) as described previously (S3). Interferon responsive ISRE-L929 cells were cultured in ISRE media (DMEM, 2 mM glutamine, 1 mM pyruvate, 10% heat inactivated FBS, and penicillin-streptomycin). Induction of type-I interferon was assessed using BMMs plated in 96-well flat bottom tissue culture treated plates (10^5 cells/well) a minimum of 12 hours prior to use in BMM media (DMEM, 2 mM glutamine, 1 mM pyruvate, 10% CSF from 3T3 cells, and 20% heat inactivated FBS). Samples (10 μL) of L. monocytogenes supernatants, HPLC fractions, and cyclic di-AMP standard (Biolog Life Sciences Institute, […]) were mixed with a 10× volume of digitonin permeabilization solution (50 mM HEPES pH 7.0, 100 mM KCl, 3 mM MgCl2, 0.1 mM DTT, 85 mM Sucrose, 0.2% BSA, 1 mM ATP, 0.1 mM GTP, ±10 μg/mL Digitonin) (S4). Media was aspirated from the cells and replaced with 50 μL each sample mixture. Cells were incubated for 30 minutes at 37° C. […] Finally, 40 μL of luciferase substrate solution (20 mM Tricine, 2.67 mM MgSO4.7H2O, 0.1 mM EDTA, 33.3 mM DTT, 530 μM ATP, 270 μM acetyl CoA lithium salt, 470 μM luciferin, 5 mM NaOH, 265 μM magnesium carbonate hydroxide) was added to each well and luminescence was measured using a VICTOR3 luminometer (PerkinElmer). • 8. […]

host IFN pathway = conditions: delivered to the host cytosol; reference 29; cited from earlier work

Row | Structure (SMILES) | cell permeability (cells) | induction of inflammation (cells; added to the outside of cells) | host signaling pathway required for detection (type-I IFN) (WT and mutant BMMs) | IFN-β induction in macrophages ([1]; commercially available c-di-AMP delivered to the cytosol of murine BMMs) | IFN-β inducing activity after treatment with snake venom phosphodiesterase (SVPD) ([1]; sample treated with SVPD) | activation of host IFN pathway (host IFN pathway)
1 | Nc1ncnc2c1ncn2[C@@H]1O[C@@H]2COP(=O)(O)O[C@H]3[C@@H](O)[C@H](n4cnc5c(N)ncnc54)O[C@@H]3COP(=O)(O)O[C@H]2[C@H]1O [c-di-AMP, cyclic di-adenosine monophosphate] | not cell permeable | does not induce inflammation | requires a parallel host-signaling pathway | dose-dependent response | abolished the activity | 
2 | Nc1nc2c(ncn2[C@@H]2O[C@@H]3COP(=O)(O)O[C@H]4[C@@H](O)[C@H](n5cnc6c(=O)[nH]c(N)nc65)O[C@@H]4COP(=O)(O)O[C@H]3[C@H]2O)c(=O)[nH]1 [c-di-GMP] |  |  |  |  |  | specifically activates the host IFN pathway
